Reference: patent US20210346459A1, “Application of Dalargin for the prevention of VRIs and prevention of the development of complications during VRIs” (priority 2020, published 2021)
Like-named read-outs stand apart in the source and are kept apart here. Marks after values point to notes of the source that are not given here. Square brackets hold non-standard residues; d marks the D form. Peptide text beside a SMILES is read from it.

How the values were obtained:
[1] = Clinical testing of inhalation: cough and shortness of breath; assay type: in vivo, human
Text: Mu and delta receptors are found in the cough centre of the medulla, and systemic application of […] of these receptors inhibits the cough reflex. This usually also affects other organs and zones of the brain that contain opioid receptors. Additionally, since receptors of this group are found in peripheral neural pathways, Dalargin can also affect the conduction of signals along these neural pathways. Dalargin inhalation mostly produces local effects of short-lived metabolites of the peptide on peripheral opioid receptors, which manifests itself in reduced response of receptor cells to stimulation and reduced intensity of the signal transmitted to the cough centre. […] A certain local analgesic effect also improves the overall condition of the patient. […] This, in turn, alleviates the irritation of the respiratory tract, reduces the loss of the inhaled product due to coughing and improves the patients' quality of life.
Shortness of breath is one of the most common symptoms of VRIs. The patient is often unable to perform the most basic actions without experiencing shortness of breath, panting, and a sensation of lacking air. Descriptions of various methods of the treatment of shortness of breath report positive effects of systemic administration of certain opioid receptor agonists. […] Systemically administered opioids are also recommended for treating shortness of breath in such patients, but side effects may limit their use. Despite the positive effect, uses of such therapies are severely limited due to typical side effects and restrictions on the sales of opioid drugs. Inhalation of Dalargin is additionally associated with improved quality of respiration. […] Unlike classical opioids, these metabolites are short-lived and only act locally, in the zone where the inhaled aerosol is deposited in the lungs, predominantly in the larynx, bronchi and trachea.

human adenovirus 5 = settings: for Virus titer Ad5 (adenovirus): virus control 4.5
in vitro [2] = settings: dog
[3] = tested on: influenza virus A/California/04/2009; assay type: in vivo, mice
influenza = assay type: in vivo, human; settings: Example 9, 4 relatives; 0.02% solution inhaled once a day, 1 mg/day; 7 days
[4] = application to skin or mucosae at any concentration; cited from earlier work
[5] = tested on: influenza virus A/Puerto Rico/8/34 (H1N1); settings: for Virus titer PR8 (influenza virus): virus control 5.5
in vitro [6] = settings: African green monkey
[7] = in vivo; cited from earlier work
[8] = Effect of low pH acetate buffer on antiviral and immunotropic activity; settings: low pH acetate-based buffer solution; nose, nasopharynx, oropharynx, oral cavity or sublingual
Text: The preferred type of buffer salts is acetate buffer, which contains sodium acetate and acetic acid, with a preferred pH value of 4.0-5.5. Citrate buffer can also be used. […] Additionally, a physiologically active buffer on the basis of sodium hydrogen phosphate dihydrate and sodium dihydrogen phosphate dihydrate can be used; however, this buffer is not sufficiently efficient in the pH range from 4.0 to 5.5 in terms of its buffer capacity.

influenza virus A = assay type: in vivo, human
[9] = administered by injection or infusion; cited from earlier work
[10] = Group 4: nasally once a day 0.2 mg/kg, concentration 0.08%
[11] = Group 4: nasally once a day 0.2 mg/kg, concentration 0.08%, 30 animals
[12] = Group 5: nasally and posterior pharyngeal wall (PS) once daily 0.5 mg/kg, concentration 0.1%
[13] = Group 5: nasally and posterior pharyngeal wall (PS) once daily 0.5 mg/kg, concentration 0.1%, 30 animals
[14] = Group 6: inhalation of 1% solution 40 min once a day, 0.5 mg/kg
[15] = Group 6: inhalation of 1% solution 40 min once a day, 0.5 mg/kg, 30 animals
[16] = Group 7: inhalation of 3% solution 45 min once a day, 1.74 mg/kg
[17] = Group 7: inhalation of 3% solution 45 min once a day, 1.74 mg/kg, 30 animals
[18] = Group 9: inhalation of 3% solution 45 min twice a day, prophylactic only
[19] = Group 9: inhalation of 3% solution 45 min twice a day, prophylactic only, 30 animals
[20] = Group 10: nasally + pharyngeal spray (PS) 0.5 mg/kg once a day, prophylactic only
[21] = Group 10: nasally + pharyngeal spray (PS) 0.5 mg/kg once a day, prophylactic only, 30 animals
[22] = Example 10, patient V, A/California/07/2009 (H1N1), 0.1% solution inhaled twice a day, 4 mg/day, with Oseltamivir

With `CC(C)C[C@H](NC(=O)[C@H](Cc1ccccc1)NC(=O)CNC(=O)[C@@H](C)NC(=O)[C@@H](N)Cc1ccc(O)cc1)C(=O)N[C@@H](CCCNC(=N)N)C(=O)O` [Dalargin, tyrosyl-D-alanyl-glycyl-phenylalanyl-leucyl-arginine diacetate] (H-Y[dA]GFLR-OH) the “Duration of reduced coughing severity” value [1] was 2 to 4 h, the “Cough reported by patients” value ([1]; clinical testing) was “alleviation or elimination of cough” and the Shortness of breath ([1]; investigational clinical use) was “significantly reduced shortness of breath”. For the same compound, the IC50 (human adenovirus 5) was 2.5 µg/mL, the “Virus titer Ad5 (adenovirus)” value (human adenovirus 5; 0.4 μg/mL) was 4.5 lg TCID50/0.1 mL and the “Virus titer Ad5 (adenovirus)” value (human adenovirus 5; 1.1 μg/mL) was 4.5 lg TCID50/0.1 mL. The “Virus titer Ad5 (adenovirus)” value (human adenovirus 5; 3.3 μg/mL) was 4.0 lg TCID50/0.1 mL, the “Virus titer Ad5 (adenovirus)” value (human adenovirus 5; 10 μg/mL) was 4.0 lg TCID50/0.1 mL and the “Virus titer Ad5 (adenovirus)” value (human adenovirus 5; 30 μg/mL) was 3.5 lg TCID50/0.1 mL. For the same compound, the SI (human adenovirus 5; CC50/IC50, Ad5 (adenovirus)) was 12, the “Antiviral properties (in words)” value (human adenovirus 5; adenovirus, Vero) was “dose-dependent reduction of the infectious activity” and the CC50 (in vitro [2]) was ≥ 30 µg/mL. For the same compound, the “Mortality, %” value [3, 10] was 56.67%, the “Protective index, %” value [3, 10] was 41.38% and the “Mortality by day 5” value [3, 11] was 2. For the same compound, the “Mortality by day 6” value [3, 11] was 4, the “Mortality by day 7” value [3, 11] was 9 and the “Mortality by day 9” value [3, 11] was 1. For the same compound, the “Mortality by day 11” value [3, 11] was 1, the Residue [3, 11] was 13 and the “Mortality, %” value [3, 12] was 40.00%. The “Protective index, %” value [3, 12] was 58.62%, the “Mortality by day 6” value [3, 13] was 1 and the “Mortality by day 7” value [3, 13] was 2. The “Mortality by day 8” value [3, 13] was 3, the “Mortality by day 9” value [3, 13] was 5 and the “Mortality by day 10” value [3, 13] was 1. For the same compound, the Residue [3, 13] was 18, the “Mortality, %” value [3, 14] was 6.67%** and the “Protective index, %” value [3, 14] was 93.10%. For the same compound, the “Mortality by day 7” value [3, 15] was 1, the “Mortality by day 8” value [3, 15] was 1 and the Residue [3, 15] was 28. The “Mortality, %” value [3, 16] was 10.00%**, the “Protective index, %” value [3, 16] was 89.66% and the “Mortality by day 7” value [3, 17] was 1. For the same compound, the “Mortality by day 8” value [3, 17] was 1, the “Mortality by day 9” value [3, 17] was 1 and the Residue [3, 17] was 27. The “Mortality, %” value [3, 18] was 30.00%, the “Protective index, %” value [3, 18] was 68.97% and the “Mortality by day 6” value [3, 19] was 2. For the same compound, the “Mortality by day 7” value [3, 19] was 3, the “Mortality by day 8” value [3, 19] was 2 and the “Mortality by day 9” value [3, 19] was 2. For the same compound, the Residue [3, 19] was 21, the “Mortality, %” value [3, 20] was 46.67% and the “Protective index, %” value [3, 20] was 51.72%. For the same compound, the “Mortality by day 5” value [3, 21] was 2, the “Mortality by day 6” value [3, 21] was 4 and the “Mortality by day 7” value [3, 21] was 2. The “Mortality by day 8” value [3, 21] was 3, the “Mortality by day 9” value [3, 21] was 2 and the “Mortality by day 10” value [3, 21] was 1. The Residue [3, 21] was 16, the “Efficacy compared with other antiviral drugs (Ingavirin, Arbidol)” value ([3]; administered by inhalation, prevention of influenza pneumonia) was “superior to other antiviral drugs” and the “Protective effect against infection, share of animals” value ([3]; preventive administration, depending on the route of administration) was 50-70%. For the same compound, the “Signs or symptoms of influenza in household contacts” value (influenza) was “None of the relatives of patient V who were in contact with them exhibited catarrhal signs, hyperthermia or other signs or symptoms of influenza”, the Local irritation [4] was “does not produce local irritation” and the “Virus titer PR8 (influenza virus)” value ([5]; 0.4 μg/mL) was 5.5 lg TCID50/0.1 mL. For the same compound, the “Virus titer PR8 (influenza virus)” value ([5]; 1.1 μg/mL) was 5.0 lg TCID50/0.1 mL, the “Virus titer PR8 (influenza virus)” value ([5]; 3.3 μg/mL) was 5.0 lg TCID50/0.1 mL and the “Virus titer PR8 (influenza virus)” value ([5]; 10 μg/mL) was 4.5 lg TCID50/0.1 mL. For the same compound, the “Virus titer PR8 (influenza virus)” value ([5]; 30 μg/mL) was 4.0 lg TCID50/0.1 mL, the SI ([5]; CC50/IC50, PR8 (influenza virus)) was >37.5 and the IC50 ([5]; PR8 (influenza virus), MDCK) was 0.8 µg/mL. The “Antiviral properties (in words)” value ([5]; influenza virus, MDCK) was “dose-dependent reduction of the infectious activity”, the CC50 (in vitro [6]) was ≥ 30 µg/mL and the LD50 [7] was 2500 mg/kg. The “Fold higher specific antiviral and immunotropic activity” value [8] was 2-4 times, the “Complete resolution of symptoms, day after start of therapy” value (influenza virus A; Example 8, patient K, influenza pneumonia A/Aichi/2/68 (H3N2), 0.02% solution inhaled twice a day, 1 mg/day, with Oseltamivir 75 mg twice a day) was 7 days and the Duration of fever (influenza virus A; [22]) was 3 days. For the same compound, the “Duration of intoxication symptoms” value (influenza virus A; [22]) was 2 days, the “Duration of the disease as a whole (complete resolution of symptoms)” value (influenza virus A; [22]) was 5 days and the Mean elimination half-life [9] was 12 min.
